System: SEM cells
Assay: cell viability relative to DMSO control; higher = less cytotoxic
Conditions: 48 h
In short: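 Viability is expressed as a percentage of DMSO wells within each plate, and cell-free wells serve as background. Seeding densities in the 1536-well plates (5 μl) were 500 cells/well for NOMO1 or SEM leukemia cells and 1000 cells/well for P12-Ichikawa. Each line was adapted for at least four passages in each medium. Library compounds in DMSO were pin-dosed at 47 μM to 0.79 nM (11 points, threefold), and CellTiter-Glo One luminescence was read after 48 h at 37°C.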

[1] = HPLM + 10% dialyzed FBS, 0.000781 µM
[2] = HPLM + 10% dialyzed FBS, 0.00234 µM
[3] = HPLM + 10% dialyzed FBS, 0.00702 µM
[4] = HPLM + 10% dialyzed FBS, 0.0211 µM
[5] = HPLM + 10% dialyzed FBS, 0.0632 µM
[6] = HPLM + 10% dialyzed FBS, 0.19 µM
[7] = HPLM + 10% dialyzed FBS, 0.569 µM
[8] = HPLM + 10% dialyzed FBS, 1.71 µM
[9] = HPLM + 10% dialyzed FBS, 5.12 µM
[10] = HPLM + 10% dialyzed FBS, 15.4 µM
[11] = HPLM + 10% dialyzed FBS, 46.1 µM
[12] = RPMI 5 mM glucose + 10% FBS, 0.000781 µM
[13] = RPMI 5 mM glucose + 10% FBS, 0.00234 µM
[14] = RPMI 5 mM glucose + 10% FBS, 0.00702 µM
[15] = RPMI 5 mM glucose + 10% FBS, 0.0211 µM
[16] = RPMI 5 mM glucose + 10% FBS, 0.0632 µM
[17] = RPMI 5 mM glucose + 10% FBS, 0.19 µM
[18] = RPMI 5 mM glucose + 10% FBS, 0.569 µM
[19] = RPMI 5 mM glucose + 10% FBS, 1.71 µM
[20] = RPMI 5 mM glucose + 10% FBS, 5.12 µM
[21] = RPMI 5 mM glucose + 10% FBS, 15.4 µM
[22] = RPMI 5 mM glucose + 10% FBS, 46.1 µM
[23] = RPMI 5 mM glucose + 10% dialyzed FBS, 0.000781 µM
[24] = RPMI 5 mM glucose + 10% dialyzed FBS, 0.00234 µM
[25] = RPMI 5 mM glucose + 10% dialyzed FBS, 0.00702 µM
[26] = RPMI 5 mM glucose + 10% dialyzed FBS, 0.0211 µM
[27] = RPMI 5 mM glucose + 10% dialyzed FBS, 0.0632 µM
[28] = RPMI 5 mM glucose + 10% dialyzed FBS, 0.19 µM
[29] = RPMI 5 mM glucose + 10% dialyzed FBS, 0.569 µM
[30] = RPMI 5 mM glucose + 10% dialyzed FBS, 1.71 µM
[31] = RPMI 5 mM glucose + 10% dialyzed FBS, 5.12 µM
[32] = RPMI 5 mM glucose + 10% dialyzed FBS, 15.4 µM
[33] = RPMI 5 mM glucose + 10% dialyzed FBS, 46.1 µM

| Structure (SMILES) | cell viability [1] [%] | cell viability [2] [%] | cell viability [3] [%] | cell viability [4] [%] | cell viability [5] [%] | cell viability [6] [%] | cell viability [7] [%] | cell viability [8] [%] | cell viability [9] [%] | cell viability [10] [%] | cell viability [11] [%] | cell viability [12] [%] | cell viability [13] [%] | cell viability [14] [%] | cell viability [15] [%] | cell viability [16] [%] | cell viability [17] [%] | cell viability [18] [%] | cell viability [19] [%] | cell viability [20] [%] | cell viability [21] [%] | cell viability [22] [%] | cell viability [23] [%] | cell viability [24] [%] | cell viability [25] [%] | cell viability [26] [%] | cell viability [27] [%] | cell viability [28] [%] | cell viability [29] [%] | cell viability [30] [%] | cell viability [31] [%] | cell viability [32] [%] | cell viability [33] [%] |
| --- | --- | --- | --- | --- | --- | --- | --- | --- | --- | --- | --- | --- | --- | --- | --- | --- | --- | --- | --- | --- | --- | --- | --- | --- | --- | --- | --- | --- | --- | --- | --- | --- | --- |
| c1cc(-c2cnn3cc(-c4ccc(OCCN5CCCCC5)cc4)cnc23)ccn1 | 69.3 | 58.4 | 94.8 | 34.4 | 32.7 | 31.1 | 27.9 | 96.2 | 88.5 | 8.18 | 30.9 | 103 | 76.7 | 121 | 63.7 | 51.6 | 43.4 | 34.8 | 103 | 105 | 40.4 | 23.3 | 91.5 | 60.9 | 99.8 | 45.4 | 31.8 | 24 | 25.9 | 90 | 78.4 | 42.2 | 23.7 |
| NC(=O)c1cnccn1 | 104 | 116 | 117 | 106 | 120 | 120 | 123 | 125 | 119 | 122 | 118 | 108 | 112 | 133 | 105 | 116 | 129 | 127 | 121 | 119 | 120 | 119 |  |  |  |  |  |  |  |  |  |  |  |
| COc1cc(NCc2ccc3nc(N)nc(N)c3c2C)cc(OC)c1OC | 78.1 | 89.2 | 91.1 | 100 | 99.6 | 104 | 99.7 | 38.1 | 40.3 | 32.5 | 12.1 | 69.1 | 94.4 | 84.9 | 84.9 | 96.8 | 93.2 | 96.8 | 24.4 | 98.4 | 72.5 | 3.26 | 74.5 | 89.3 | 88.6 | 82.3 | 94.4 | 94.8 | 102 | 23.9 | 62.9 | 35.7 | 3.29 |
| C[C@@H]1[C@H]\2[C@H](O)[C@H]3[C@H](N(C)C)\C(=C(C(N)=O)/C(=O)[C@@]3(O)\C(=C2C(=O)C4=C(O)C=CC=C14)O)O |  |  |  |  |  |  |  |  |  |  |  | 115 | 131 | 110 | 127 | 109 | 145 | 122 | 121 | 126 | 102 | 123 | 123 | 122 | 123 | 122 | 108 | 133 | 149 | 144 | 113 | 89.9 | 93.4 |
| CC(=O)N(C)C1(c2ccccc2)CCN(CCC[C@]2(c3ccc(Cl)c(Cl)c3)CCCN(C(=O)c3ccccc3)C2)CC1 | 120 | 129 | 124 | 116 | 123 | 120 | 74.1 | 14.2 | 11.2 | 9.08 | 7.03 | 109 | 130 | 103 | 126 | 123 | 123 | 78.7 | 9.2 | 6.49 | 6.83 | 4.78 | 109 | 145 | 119 | 128 | 139 | 128 | 133 | 18.4 | 12 | 10.6 | 6.46 |
| CNC(=O)c1ccc2c(c1)NC(=O)/C2=C(\Nc1cccc(CN(C)C)c1)c1ccccc1 | 74.4 | 93.6 | 98.8 | 109 | 85.3 | 89.9 | 78.1 | 57.7 | 4.44 | 23.4 | 1.26 | 97 | 94.9 | 97.3 | 106 | 93.5 | 89.7 | 94.5 | 4.33 | 3.4 | 1.5 | 1.29 | 78.4 | 92.3 | 97.5 | 92.1 | 87.2 | 108 | 81.4 | 35.4 | 3.62 | 1.76 | 1.28 |
| CN(C)c1nc(Cc2ccc(NC(=O)c3ccc(C(F)(F)F)cc3)cc2)nc(N(C)C)c1CC(=O)O | 104 | 107 | 106 | 100 | 116 | 100 | 123 | 112 | 125 | 116 | 83.4 | 113 | 99.4 | 101 | 93.7 | 111 | 82.8 | 118 | 93.4 | 110 | 100 | 74.7 | 99.1 | 118 | 102 | 108 | 121 | 117 | 113 | 115 | 109 | 105 | 90 |
| CC(C)(N)c1ccc(-c2nc3ccccc3nc2-c2ccccc2)cc1 | 99.5 | 109 | 117 | 100 | 38.5 | 15.5 | 6.7 | 6.11 | 5.5 | 3.11 | 3.57 | 110 | 103 | 93.7 | 36.2 | 12.4 | 7.19 | 5.88 | 5.02 | 4.24 | 2.31 | 3.42 | 99.5 | 106 | 101 | 86.3 | 17.5 | 10 | 6.06 | 4.9 | 4.26 | 2.44 | 3.2 |
| Nc1n[nH]c2nnc(-c3c(-c4ccccc4)nn4ccccc34)cc12 | 93.5 | 109 | 109 | 115 | 116 | 127 | 124 | 109 | 113 | 92.2 | 9.4 | 113 | 114 | 107 | 121 | 122 | 131 | 121 | 117 | 117 | 100 | 17.3 | 116 | 102 | 119 | 126 | 114 | 125 | 134 | 123 | 137 | 116 | 21 |
| CO[C@H]1/C=C/O[C@@]2(C)Oc3c(C)c(O)c4c(c3C2=O)C2=NC3(CCN(CC(C)C)CC3)NC2=C(NC(=O)/C(C)=C/C=C/[C@H](C)[C@H](O)[C@@H](C)[C@@H](O)[C@@H](C)[C@H](OC(C)=O)[C@@H]1C)C4=O | 92.6 | 80.4 | 103 | 109 | 122 | 118 | 123 | 17.8 | 122 | 108 | 105 | 116 | 114 | 133 | 133 | 153 | 144 | 135 | 10.7 | 152 | 125 | 113 | 110 | 100 | 118 | 117 | 135 | 122 | 130 | 26.7 | 123 | 93 | 99.1 |
| CC(C)C1CCC(C(=O)N[C@H](Cc2ccccc2)C(=O)O)CC1 (stereo not given in full) | 92.5 | 93.8 | 91.7 | 108 | 71.1 | 26.3 | 82.7 | 97.6 | 85.2 | 80.3 | 78.5 | 108 | 94.1 | 90 | 112 | 80.9 | 21.2 | 62.7 | 85.6 | 98 | 95.4 | 77.8 | 108 | 104 | 103 | 102 | 75.4 | 21.7 | 84.3 | 88.7 | 98.5 | 93.1 | 96.8 |
| Nc1ccc(C(=O)c2cc3c(ccc4ccccc43)[nH]2)cc1 |  |  |  |  |  |  |  |  |  |  |  | 118 | 137 | 124 | 130 | 129 | 102 | 109 | 110 | 32.1 | 15.9 | 8.45 | 121 | 130 | 117 | 126 | 138 | 104 | 100 | 95 | 27.9 | 12.1 | 11.3 |
| CCCOc1ccc(C(=O)OCCN(CC)CC)cc1N | 85.3 | 105 | 29.3 | 105 | 104 | 118 | 122 | 104 | 108 | 114 | 97.7 | 94.6 | 110 | 10.1 | 118 | 115 | 107 | 114 | 116 | 105 | 120 | 96.3 | 80 | 88 | 23.2 | 104 | 99.3 | 104 | 95.8 | 98.1 | 106 | 102 | 85.3 |
| O=C(c1cncc(Br)c1)N1CCC(N2CCCC2)CC1 | 100 | 118 | 107 | 106 | 115 | 106 | 106 | 107 | 114 | 99.7 | 88.5 | 98.4 | 106 | 107 | 110 | 105 | 114 | 117 | 108 | 117 | 95.1 | 77.2 | 110 | 95 | 95 | 105 | 99 | 112 | 102 | 98.7 | 99.1 | 91.2 | 71.2 |
| CC1(C)SCCN([S+](=O)([O-])c2ccc(OCC#CCO)cc2)[C@H]1C(=O)NO | 97.8 | 96.3 | 109 | 112 | 104 | 99.6 | 102 | 89.5 | 91.3 | 86.6 | 80.8 | 129 | 116 | 115 | 123 | 109 | 107 | 105 | 104 | 106 | 91.4 | 88.1 | 105 | 109 | 105 | 103 | 91.1 | 94.3 | 107 | 90.1 | 78.9 | 74.1 | 69.5 |
| O=C(O)c1cc(O)c2c(c1)C(=O)c1cccc(O)c1C2=O | 112 | 113 | 103 | 108 | 110 | 116 | 89.7 | 111 | 96.8 | 92.9 | 91.9 | 105 | 108 | 105 | 106 | 104 | 120 | 108 | 111 | 97.9 | 92.9 | 84.4 | 119 | 116 | 108 | 117 | 118 | 105 | 111 | 113 | 116 | 96.6 | 84.9 |

Reference: the supplement of paper PMC11451515
